Laboratory results published in publication PMC8037910, “Effect of Chronic Administration of 5-(3-chlorophenyl)-4-Hexyl-2,4 -Dihydro-3H-1,2,4-Triazole-3-Thione (TP-315)—A New Anticonvulsant Drug Candidate—On Living Organisms” (International Journal of Molecular Sciences, 2021).
Where two headings read alike, the source gives them in different places.

Legend:
CYP2D6 = target: T1, CYP2D6 (Homo sapiens, UniProt P10635); experiment: Vivid CYP450 screening kit, CYP2D6; format: biochemical; conditions: 0.015 μg/mL, 20 min incubation, p > 0.05
T1 construct: purchased Thermo Fisher Scientific
Method: Possible inhibitory effect of TP-315 on the catalytic activity of human cytochrome CYP450 enzymes was tested using Vivid CYP450 screening kits (Thermo Fisher Scientific, Waltham, MA, USA) according to the manufacturer’s standard procedure (Vivid BOMCC substrate CYP2B6 blue, Vivid DBOMF substrate CYP3A4 green, Vivid DBOMF substrate CYP3A5 green, Vivid EOMCC substrate CYP2C19 blue, Vivid MOBFC substrate CYP2D6 cyan). The experiment was carried out in the endpoint test mode (reading after 20 min of incubation). The test compound was dissolved in DMSO (starting concentrations, 2.5× concentrated); to avoid the influence of the solvent on the enzyme activity, the results were compared with the solvent control. The influence of TP-315 on the activity of selected enzymes was tested at concentrations of 0.015, 0.1, 0.5, 1, 2.5, 5, and 10 μg/mL. The positive control compounds (inhibitors) were miconazole (for CYP2C19 and CYP2B6), quinidine (for CYP2D6), and ketoconazole (for CYP3A4 and CYP3A5). Inhibitor concentrations were selected according to the manufacturer’s recommendations to achieve ≥90% inhibition. All inhibitors were obtained from Sigma-Aldrich (St. Louis, MO, USA). The BioTek Synergy H1 reader (BioTek Instruments, Inc., USA) was used to read the fluorescence according to the manufacturer’s guidelines. The tests were performed in duplicate.

[1] = tested on: 6 Hz psychomotor seizure model; design: method as in PMID 32253957; conditions: mice, cited from earlier work
Albino Swiss mice = experiment: Biochemical parameters of liver and renal function in serum after chronic administration; format: in vivo; conditions: 47.6 mg/kg i.p. for 14 days, unpaired t-test p > 0.05
Method: (§1) The experiments were carried out on adult male Albino Swiss mice weighing 20 ± 5 g. […] The mice from the control group (8 mice) received 0.9% NaCl solution i.p. once daily for 14 days.
(§2) After completion of the experimental procedure (on the 15th day—24h after the last injection), the animals were decapitated. Their livers and kidneys were collected for histopathological examination, while blood was drawn for biochemical and morphological tests and for HPLC-FL determination of TP-315 in serum.
For the determination of biochemical parameters (ALT, AST, GGT, creatinine, urea), whole blood was collected in clotting activator tubes (Sarstadt, Nümbrecht, Germany). To obtain serum, blood tubes were centrifuged at 4200 RPM for 10 min. Biochemical determinations were performed on an ERBA XL 640 analyzer (ERBA Mannheim, Germany) according to the manufacturer’s standard procedure. Whole blood for the determination of morphological parameters was collected in ethylenediaminetetraacetic acid (EDTA) tubes (Sarstadt, Nümbrecht, Germany). Morphological parameters were determined on the MYTHIC 18 Cormay analyzer (Cormay, Lublin, Poland) according to the manufacturer’s standard procedure.

[2] = Quantification of TP-315 in mouse serum by HPLC-FL; format: in vivo; conditions: male, Albino Swiss, ip, mice, 47.6 mg/kg i.p. for 14 days, 24 h after the last injection, mean ± SD, read-out: Mean measured concentration of TP-315 in the plasma of the mice
Method: as §1
as §2, with “serum. […]” for “serum.”
Serum samples for recovery study and quantification of the examined compound using the standard addition method were prepared by spiking 0.1 mL of TP-315 free serum or the serum of treated mice with 0.4 mL deionized water and 0.5 mL of the appropriate standard solution, providing a calibration range between 0.0125–0.05 mg/L (0.0125, 0.025, 0.0375, and 0.05 mg/L) and QC levels of 0.06, 0.12, and 0.18 mg/L. Investigated serum samples were treated in the same manner as the QCs. […]
The HPLC analysis was carried out using an Elite LaChrom HPLC Merck-Hitachi (Merck, Darmstadt, Germany) equipped with a fluorescence detector (L-2485U) and a column thermostat Jetstream 2 Plus (100375, Knauer). […] The fluorescence detection was performed at an excitation of 265 nm and an emission of 411 nm. […]

T1 sequence (P10635 whole entry): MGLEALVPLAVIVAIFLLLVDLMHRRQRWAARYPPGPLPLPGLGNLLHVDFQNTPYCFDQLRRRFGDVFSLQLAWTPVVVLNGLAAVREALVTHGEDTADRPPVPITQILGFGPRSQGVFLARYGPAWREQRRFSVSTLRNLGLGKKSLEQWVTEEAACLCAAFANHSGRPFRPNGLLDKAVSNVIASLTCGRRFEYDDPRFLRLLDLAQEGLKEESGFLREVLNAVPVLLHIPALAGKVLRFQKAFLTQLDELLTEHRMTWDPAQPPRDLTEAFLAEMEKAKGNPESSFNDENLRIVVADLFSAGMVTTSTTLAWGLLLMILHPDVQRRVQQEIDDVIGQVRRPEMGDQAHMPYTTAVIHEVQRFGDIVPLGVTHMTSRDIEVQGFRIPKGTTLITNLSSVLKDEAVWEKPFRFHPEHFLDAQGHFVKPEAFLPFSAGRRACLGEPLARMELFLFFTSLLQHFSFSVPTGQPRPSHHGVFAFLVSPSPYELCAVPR

## CCCCCCn1c(-c2cccc(Cl)c2)n[nH]c1=S [TP-315, 5-(3-Chlorophenyl)-4-hexyl-2,4-dihydro-3H-1,2,4-triazole-3-thione]
CYP2D6
  Inhibition of CYP2D6 activity compared to the control: did not statistically significantly inhibit
[1]; pretreatment time 15 min
  Anticonvulsant Activity in 6 Hz Test ED50 ± SEM: 61.3 ± 10.1 mg/kg
[1]; pretreatment time 30 min
  Anticonvulsant Activity in 6 Hz Test ED50 ± SEM: 59.7 ± 6.8 mg/kg
[1]; pretreatment time 60 min
  Anticonvulsant Activity in 6 Hz Test ED50 ± SEM: 68.1 ± 11.0 mg/kg
[1]; pretreatment time 120 min
  Anticonvulsant Activity in 6 Hz Test ED50 ± SEM: 136.2 ± 18.3 mg/kg
Albino Swiss mice
  ALT in serum vs control group: did not differ statistically significant
  AST in serum vs control group: did not differ statistically significant
  Creatinine concentration in serum vs control group: not statistically significant
  GGT in serum vs control group: did not differ statistically significant
  Urea concentration in serum vs control group: not statistically significant
[2]
  concentration at 24 h: 14.5 ± 12.5 ng/mL
